US8702927B2, “Multiple-electrode and metal-coated probes” (The Trustees Of The University Of Pennsylvania, priority 2009, dated 2014)
Several values for one entry are separate records, joined by “and”; a condition that tells them apart may be missing. Identical values can stand only once.

Experiments:
GABAA receptor = experiment: CNP-recorded membrane potential of HT-22 cells during pharmacological stimulation (GABA, bicuculline), current-clamp; format: cell-based, mouse
Description: Y-aminobutyric acid (GABA), a principal inhibitory neurotransmitter in the mammalian central nervous system which acts as an agonist for the membrane-bound GABAA receptor, was administered. When GABA binds to the GABAA receptor, the cell hyperpolarizes as a result of C1-ion influx due to the opening of the ligand-gated C1-ion channel. However, the hyperpolarization can be blocked by perfusing cells with bicuculline (BIC), a competitive antagonist for the GABAA receptor which binds to the GABAA receptor and prevents it from opening even in the presence of GABA.
FIG. 10A illustrates how an HT-22 cell responded when GABA was added to the cell bath (12 mM GABA in bath, arrow).
FIG. 10B represents the opposing membrane responses to such stimuli over time.

HT-22 cells = experiment: CNP-recorded membrane potential of HT-22 cells during ionic (K+) enrichment, current-clamp; format: cell-based, mouse; settings: for depolarization of membrane potential: KCl added to cell bath; for time for cell to return to its RMP: after KCl
Description: Because the cell membrane is highly permeable to potassium ions (K^+), an increase or decrease in extracellular K+ concentration will, respectively, cause a resting cell to depolarize (membrane potential becoming more positive) or hyperpolarize (membrane potential becoming more negative). Utilizing CNPs, variations in membrane potential were monitored over tens of minutes. FIG. 8A is a recording of membrane potential from an HT-22 cell during perfusion intervals with normal HBSS and K+-enriched HBSS (additional 5 mM K^+). […] After approximately 2 min at higher extracellular K^+, the cell was perfused with normal HBSS and the cell slowly returned to its RMP.
Next, a CNP was used to measure changes in membrane potential during repetitive extracellular administration of KCl [FIG. 8B]. After penetrating the cell, as indicated by the arrow in FIG. 8B, the CNP measured a stable RMP under normal HBSS perfusion (Emp=−68 mV). […] Under constant perfusion in normal HBSS, the membrane potential returned to its original value after […]. The results were reproducible with high fidelity.
FIG. 8C is a representation of potential variations as a function of time during the administration of HBSS and the varied K+-enrichment of HBSS (additional 5 and 15 mM K^+). […] As normal HBSS perfusion brought the bath back to its initial K+ concentration, the cell returned to its RMP in ˜90 seconds.
The mouse hippocampal cell line HT-22 was kindly provided by Dr. David Schubert (The Salk Institute, San Diego, Calif.). Cells were grown in Dulbecco's Modified Eagle Medium (DMEM, high glucose) supplemented with 10% fetal bovine serum (FBS) and 1% antibiotics. The cells were plated on 12 mm cover slips 48 hrs prior to the electrophysiology measurements. The cells on the cover slips were incubated in HBSS (with calcium and magnesium) at room temperature for 10 min prior to measurements. The cover slips were subsequently placed in an open diamond perfision bath (Warner Instruments Corp., RC-22C) positioned on an upright microscope (Nikon eclipse E600FN, 40× water-immersion lens, Burleigh Gibraltar fixed-stage platform) located atop a vibration-isolation table. Cells were routinely perfised with HBSS at a flow rate of 1.0 mllmin.
Membrane potential measurements were recorded with an Axon AxoClamp-2A amplifier equipped with a headstage for high resistance electrodes (Axon HS2-XO.OlMU) and Digidata 1322A digitizer (Axon Instruments/Molecular Devices, Sunnyvale, Calif.). Experimental protocols were controlled and data acquired by a personal computer using the Clampex 8.2 software (Axon Instruments). CNPs were inserted into a standard electrode holder until the metal wire of the holder came in contact with the inner carbon film of the CNP. A slight positive pressure was applied through the holder's perfixion port to keep external solution from filling the hollow CNP by capillarity. A micromanipulator (Narishige MHW-3) was used to manipulate and position the CNP electrodes during the electrophysiology measurements. All the electrical measurements were carried out versus an AgIAgCl reference electrode submerged in HBSS in discontinuous current clamp @CC) mode, at zero current, with no capacitance compensation. The CNP potential was nulled (+I-2 mV) with the amplifier offset potential during immersion in HBSS before all electrical measurements. Recorded electrical measurements were not adjusted to compensate for differences in extracellular and intracellular junction potentials.

## NCCCC(=O)O [GABA, Y-aminobutyric acid]
GABAA receptor; 12 mM GABA in bath, normal HBSS perfusion, FIG. 10A, FIG. 10B
  hyperpolarization from the RMP: 10 mV and 12 mV
GABAA receptor; after 12 mM GABA, constant HBSS perfusion
  time for cell to return to its RMP: 30 s and 60 s

## [Cl-].[K+] [KCl, Potassium chloride]
HT-22 cells; additional 5 mM K+, RMP -57 mV, FIG. 8C
  depolarization of membrane potential: 10 mV
HT-22 cells; additional 15 mM K+, RMP -57 mV, FIG. 8C, FIG. 10B
  depolarization of membrane potential: 30 mV and 25 mV
HT-22 cells; additional 25 mM K+, RMP -68 mV, FIG. 8B
  depolarization of membrane potential: 40 mV
HT-22 cells; additional 5 mM K+, normal HBSS perfusion
  time for cell to return to its RMP: ~90 s
HT-22 cells; additional 15 mM K+, HBSS perfusion
  time for cell to return to its RMP: ~90 s and 60 s
